Data from patent US11034672B1, “Tyrosine kinase inhibitor compositions, methods of making and methods of use” (Black Diamond Therapeutics, Inc., priority 2018, dated 2021).
pIC50: −log10 of the molar value.

What was measured:
Format in all cases: cell-based
[1] = target: T1, EGFR WT (Homo sapiens, UniProt P00533); experiment: BaF3 cell proliferation assay, EGFR WT (Table A); settings: potency code, 3 days, CellTiterGlo, read-out: EGFR WT (Activity for Inhibiting EGFR)
Method in brief: (§1)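 EC50s reflect growth of IL-3-independent BaF3 lines whose proliferation depends on the introduced human receptor variant. Lines were produced by retroviral infection and one week of 10 μg/ml Blasticidin selection.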

[2] = target: T2, EGFR NPH (Homo sapiens, UniProt P00533, DUP771-773); experiment: BaF3 cell proliferation assay, EGFR NPH (Table A); settings: potency code, 3 days, CellTiterGlo, read-out: EGFR NPH (Activity for Inhibiting EGFR)
T2 construct: expressed in transfected cells; host or cells: BaF3 (murine pro-B), retroviral pMXs-IRES-Blasticidin
Protocol: (§2) Retroviral Production: EGFR mutants were subcloned into pMXs-IRES-Blasticidin (RTV-016, Cell Biolabs, San Diego, Calif.). Retroviral expression vector retrovirus was produced by transient transfection of HEK 293T cells with the retroviral EGFR mutant expression vector pMXs-IRES-Blasticidin (RTV-016, Cell Biolabs), pCMV-Gag-Pol vector and pCMV-VSV-G-Envelope vector. Briefly, HEK 293T/17 cells were plated in 100 mm collagen coated plate (354450, Corning Life Sciences, Tewksbury, Mass.) (4×10^5 per plate) and incubated overnight. The next day, retroviral plasmids (3 μg of EGFR mutant, 1.0 μg of pCMV-Gag-Pol and 0.5 μg pCMV-VSV-G) were mixed in 500 μl of Optimem (31985, Life Technologies). The mixture was incubated at room temperature for 5 min and then added to Optimem containing transfection reagent Lipofectamine (11668, Invitrogen) and incubated for 20 minutes. Mixture was then added dropwise to HEK 293T cells. The next day the medium was replaced with fresh culture medium and retrovirus was harvested @ 24 and 48 hrs.
(§3) Generation of EGFR mutant stable cell lines: BaF3 cells (1.5E5 cells) were infected with 1 ml of viral supernatant supplemented with 8 μg/ml polybrene by centrifuging for 30 min at 1000 rpm. Cells were placed in a 37° C. incubator overnight. Cells were then spun for 5 minutes to pellet the cells. Supernatant was removed and cells re-infected a fresh 1 ml of viral supernatant supplemented with 8 μg/ml polybrene by centrifuging for 30 min at 1000 rpm. Cells were placed in 37° C. incubator overnight. […] After 48 hours cells were selected for retroviral infection in 10 μg/ml Blasticidin for one week. Blasticidin resistant populations were washed twice in phosphate buffered saline before plating in media lacking IL-3 to select for IL-3 independent growth.
(§4) EC50 values were determined with the same application.

[3] = target: T1, EGFR WT; experiment: Activity for inhibiting EGFR (Table A), EGFR WT; settings: read-out: EGFR WT, potency code (IC50)
[4] = target: T3, EGFR V3 (Homo sapiens, UniProt P00533, DELINS30-297G); experiment: Activity for inhibiting EGFR (Table A), EGFR V3 (EGFR-Viii); settings: read-out: EGFR V3, potency code (IC50)
T3 construct: expressed in transfected cells; host or cells: BaF3 (murine pro-B), retroviral pMXs-IRES-Blasticidin

[5] = target: T4, HER2 WT (Homo sapiens, UniProt P04626); experiment: Activity for inhibiting HER2 (Table B), HER2 WT
[6] = target: T5, HER2 S310F (Homo sapiens, UniProt P04626, S310F); experiment: Activity for inhibiting HER2 (Table B), HER2 S310F; settings: read-out: HER2 S310F, potency code (IC50)
T5 construct: expressed in transfected cells; host or cells: BaF3 (murine pro-B)
Protocol: as §4

[7] = target: T2, EGFR NPH; experiment: Activity for inhibiting EGFR (Table A), EGFR NPH; settings: read-out: EGFR NPH, potency code (IC50)
[8] = target: T4, HER2 WT; experiment: BaF3 cell proliferation assay, HER2 WT (Table B); settings: potency code, 3 days, CellTiterGlo, read-out: HER2 WT (Activity for Inhibiting HER2)
[9] = target: T6, EGFR SVD (Homo sapiens, UniProt P00533, DUP768-770); experiment: BaF3 cell proliferation assay, EGFR SVD (Table A); settings: potency code, 3 days, CellTiterGlo, read-out: EGFR SVD (Activity for Inhibiting EGFR)
T6 construct: expressed in transfected cells; host or cells: BaF3 (murine pro-B), retroviral pMXs-IRES-Blasticidin
Protocol: as §2, §3, §4

[10] = target: T3, EGFR V3; experiment: BaF3 cell proliferation assay, EGFR V3 (Table A); settings: potency code, 3 days, CellTiterGlo, read-out: EGFR V3 (Activity for Inhibiting EGFR)
Method in brief: as §1

[11] = target: T6, EGFR SVD; experiment: Activity for inhibiting EGFR (Table A), EGFR SVD; settings: read-out: EGFR SVD, potency code (IC50)
[12] = target: T5, HER2 S310F; experiment: BaF3 cell proliferation assay, HER2 S310F (Table B); settings: potency code, 3 days, CellTiterGlo, read-out: HER2 S310F (Activity for Inhibiting HER2)
[13] = target: T7, HER2 YVMA (Homo sapiens, UniProt P04626, INS775YVMA); experiment: Activity for inhibiting HER2 (Table B), HER2 YVMA; settings: read-out: HER2 YVMA, potency code (IC50)
T7 construct: expressed in transfected cells; host or cells: BaF3 (murine pro-B)
Protocol: as §4

[14] = target: T7, HER2 YVMA; experiment: BaF3 cell proliferation assay, HER2 YVMA (Table B); settings: potency code, 3 days, CellTiterGlo, read-out: HER2 YVMA (Activity for Inhibiting HER2)
[15] = Table B, read-out: HER2 WT, potency code (IC50)
[16] = text lists of compounds, read-out: IC50 value for inhibiting wild-type HER2

T3 sequence (P00533 with tags, fused parts or gaps DELINS30-297G): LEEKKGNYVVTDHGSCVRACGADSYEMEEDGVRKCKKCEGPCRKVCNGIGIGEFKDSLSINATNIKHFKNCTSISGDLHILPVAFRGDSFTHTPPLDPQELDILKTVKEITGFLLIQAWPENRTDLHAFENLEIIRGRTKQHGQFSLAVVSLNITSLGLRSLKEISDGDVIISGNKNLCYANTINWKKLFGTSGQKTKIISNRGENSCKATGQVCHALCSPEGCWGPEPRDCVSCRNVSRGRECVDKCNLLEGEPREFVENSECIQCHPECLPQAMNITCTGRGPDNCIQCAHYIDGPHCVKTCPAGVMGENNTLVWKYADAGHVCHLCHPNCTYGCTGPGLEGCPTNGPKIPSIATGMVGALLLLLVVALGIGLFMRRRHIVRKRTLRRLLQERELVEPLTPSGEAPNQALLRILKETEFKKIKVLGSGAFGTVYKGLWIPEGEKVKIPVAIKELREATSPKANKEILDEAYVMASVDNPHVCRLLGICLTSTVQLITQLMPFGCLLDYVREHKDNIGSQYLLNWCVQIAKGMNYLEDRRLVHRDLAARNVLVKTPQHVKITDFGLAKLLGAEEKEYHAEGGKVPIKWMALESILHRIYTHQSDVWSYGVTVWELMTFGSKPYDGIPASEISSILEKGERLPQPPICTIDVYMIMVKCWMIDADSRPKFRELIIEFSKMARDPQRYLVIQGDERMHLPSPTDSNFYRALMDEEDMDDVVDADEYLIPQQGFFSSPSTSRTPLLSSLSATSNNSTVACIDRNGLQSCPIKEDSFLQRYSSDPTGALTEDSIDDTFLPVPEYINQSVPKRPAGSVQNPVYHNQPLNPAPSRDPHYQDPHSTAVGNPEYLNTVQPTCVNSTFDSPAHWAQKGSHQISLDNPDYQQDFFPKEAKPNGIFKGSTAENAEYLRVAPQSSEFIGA
T5 sequence (P04626 23-1255 S310F): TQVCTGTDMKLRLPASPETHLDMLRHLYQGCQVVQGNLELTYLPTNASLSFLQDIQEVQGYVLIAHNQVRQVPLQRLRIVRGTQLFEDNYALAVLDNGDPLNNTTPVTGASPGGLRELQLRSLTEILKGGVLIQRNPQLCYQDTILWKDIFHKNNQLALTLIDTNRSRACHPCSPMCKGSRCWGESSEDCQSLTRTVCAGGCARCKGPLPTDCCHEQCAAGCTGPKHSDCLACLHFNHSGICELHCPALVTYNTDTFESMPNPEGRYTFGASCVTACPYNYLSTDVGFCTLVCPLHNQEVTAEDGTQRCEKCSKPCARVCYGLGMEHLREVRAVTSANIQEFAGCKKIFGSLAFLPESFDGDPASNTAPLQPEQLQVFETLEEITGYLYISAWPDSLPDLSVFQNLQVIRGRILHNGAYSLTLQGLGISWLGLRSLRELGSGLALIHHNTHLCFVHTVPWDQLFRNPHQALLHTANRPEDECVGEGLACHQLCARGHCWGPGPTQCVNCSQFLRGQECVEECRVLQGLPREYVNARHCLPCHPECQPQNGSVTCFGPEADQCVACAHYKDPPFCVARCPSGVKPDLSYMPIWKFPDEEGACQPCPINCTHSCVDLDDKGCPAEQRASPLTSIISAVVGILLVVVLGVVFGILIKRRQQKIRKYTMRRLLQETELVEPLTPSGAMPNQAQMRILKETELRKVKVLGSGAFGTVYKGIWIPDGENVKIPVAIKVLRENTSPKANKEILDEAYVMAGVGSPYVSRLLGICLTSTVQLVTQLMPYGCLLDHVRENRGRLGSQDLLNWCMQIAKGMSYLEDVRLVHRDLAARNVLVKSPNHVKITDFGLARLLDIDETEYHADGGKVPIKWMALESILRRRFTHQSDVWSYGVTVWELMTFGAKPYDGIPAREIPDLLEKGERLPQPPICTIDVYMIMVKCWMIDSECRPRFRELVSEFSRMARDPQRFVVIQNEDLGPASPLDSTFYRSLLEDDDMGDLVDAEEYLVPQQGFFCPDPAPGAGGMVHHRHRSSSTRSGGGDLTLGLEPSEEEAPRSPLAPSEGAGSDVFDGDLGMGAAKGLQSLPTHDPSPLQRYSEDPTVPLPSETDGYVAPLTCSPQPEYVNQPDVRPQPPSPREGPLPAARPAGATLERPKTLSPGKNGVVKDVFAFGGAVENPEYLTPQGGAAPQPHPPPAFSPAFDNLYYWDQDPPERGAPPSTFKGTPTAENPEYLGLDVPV
T6 sequence (P00533 with tags, fused parts or gaps DUP768-770): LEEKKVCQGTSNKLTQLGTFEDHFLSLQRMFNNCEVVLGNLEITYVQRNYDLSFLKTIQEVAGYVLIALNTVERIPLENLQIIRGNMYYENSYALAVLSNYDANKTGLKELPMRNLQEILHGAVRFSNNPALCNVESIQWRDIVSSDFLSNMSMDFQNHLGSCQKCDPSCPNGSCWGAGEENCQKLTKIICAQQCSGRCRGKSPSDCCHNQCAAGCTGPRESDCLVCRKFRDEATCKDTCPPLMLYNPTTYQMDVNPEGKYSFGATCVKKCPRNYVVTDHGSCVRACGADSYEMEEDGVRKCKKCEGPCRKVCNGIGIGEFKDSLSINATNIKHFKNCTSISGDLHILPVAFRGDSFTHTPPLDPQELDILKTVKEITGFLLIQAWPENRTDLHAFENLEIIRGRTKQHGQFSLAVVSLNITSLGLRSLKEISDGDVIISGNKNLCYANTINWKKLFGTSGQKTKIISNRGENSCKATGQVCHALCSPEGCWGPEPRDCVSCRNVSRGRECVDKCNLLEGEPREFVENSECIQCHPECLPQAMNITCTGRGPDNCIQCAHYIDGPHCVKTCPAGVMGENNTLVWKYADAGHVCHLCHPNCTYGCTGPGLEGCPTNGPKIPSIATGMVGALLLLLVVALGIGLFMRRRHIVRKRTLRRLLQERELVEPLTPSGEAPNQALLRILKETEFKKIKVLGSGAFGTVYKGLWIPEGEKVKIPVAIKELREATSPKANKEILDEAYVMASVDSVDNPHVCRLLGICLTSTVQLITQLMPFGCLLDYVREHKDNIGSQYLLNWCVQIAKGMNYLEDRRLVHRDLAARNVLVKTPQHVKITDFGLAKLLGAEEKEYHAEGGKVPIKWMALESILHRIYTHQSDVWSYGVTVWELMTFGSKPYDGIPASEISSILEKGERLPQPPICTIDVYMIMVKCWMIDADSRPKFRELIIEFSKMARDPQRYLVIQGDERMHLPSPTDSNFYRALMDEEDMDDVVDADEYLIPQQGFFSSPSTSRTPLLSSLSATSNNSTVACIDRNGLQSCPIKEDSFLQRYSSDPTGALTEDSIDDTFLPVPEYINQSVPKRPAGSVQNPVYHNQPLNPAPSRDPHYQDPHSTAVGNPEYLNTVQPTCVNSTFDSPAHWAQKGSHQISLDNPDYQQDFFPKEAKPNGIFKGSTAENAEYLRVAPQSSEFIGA
T2 sequence (P00533 with tags, fused parts or gaps DUP771-773): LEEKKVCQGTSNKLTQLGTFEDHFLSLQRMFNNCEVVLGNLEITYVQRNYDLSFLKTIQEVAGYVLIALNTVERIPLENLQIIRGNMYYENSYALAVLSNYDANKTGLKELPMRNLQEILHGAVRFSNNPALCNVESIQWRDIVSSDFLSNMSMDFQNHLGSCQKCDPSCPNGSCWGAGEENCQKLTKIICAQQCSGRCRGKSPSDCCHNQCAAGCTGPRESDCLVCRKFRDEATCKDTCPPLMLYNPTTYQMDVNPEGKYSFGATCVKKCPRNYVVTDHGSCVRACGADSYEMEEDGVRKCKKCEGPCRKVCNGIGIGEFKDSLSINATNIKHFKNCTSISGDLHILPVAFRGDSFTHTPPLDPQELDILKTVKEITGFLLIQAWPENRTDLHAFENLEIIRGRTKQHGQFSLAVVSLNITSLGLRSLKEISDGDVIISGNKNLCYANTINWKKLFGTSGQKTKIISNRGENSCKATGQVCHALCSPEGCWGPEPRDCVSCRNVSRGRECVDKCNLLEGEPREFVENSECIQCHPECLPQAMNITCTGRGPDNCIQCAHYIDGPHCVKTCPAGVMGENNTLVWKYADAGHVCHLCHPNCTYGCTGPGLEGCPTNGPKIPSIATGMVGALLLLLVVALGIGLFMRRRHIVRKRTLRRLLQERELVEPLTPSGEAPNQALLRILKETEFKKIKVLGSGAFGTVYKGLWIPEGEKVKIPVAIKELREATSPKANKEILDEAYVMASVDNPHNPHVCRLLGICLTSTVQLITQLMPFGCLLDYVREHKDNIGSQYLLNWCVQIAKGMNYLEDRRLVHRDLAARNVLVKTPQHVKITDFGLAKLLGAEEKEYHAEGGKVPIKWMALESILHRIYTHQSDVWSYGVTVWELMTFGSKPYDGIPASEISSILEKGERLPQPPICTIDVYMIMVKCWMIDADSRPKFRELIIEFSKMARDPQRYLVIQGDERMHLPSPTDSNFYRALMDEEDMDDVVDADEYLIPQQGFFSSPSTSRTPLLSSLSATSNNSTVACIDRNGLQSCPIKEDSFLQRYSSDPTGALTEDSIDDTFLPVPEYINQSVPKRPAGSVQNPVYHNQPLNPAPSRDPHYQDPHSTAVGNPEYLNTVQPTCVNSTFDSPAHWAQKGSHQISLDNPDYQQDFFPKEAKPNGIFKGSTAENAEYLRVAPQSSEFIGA

| SMILES | pIC50 [1] | pIC50 [2] | pIC50 [3] | pIC50 [4] | pIC50 [5, 15] | pIC50 [5, 16] | pIC50 [6] | pIC50 [7] | pIC50 [8] | pIC50 [9] | pIC50 [10] | pIC50 [11] | pIC50 [12] | pIC50 [13] | pIC50 [14] |
| --- | --- | --- | --- | --- | --- | --- | --- | --- | --- | --- | --- | --- | --- | --- | --- |
| C=CC(=O)Nc1cc2c(Nc3ccc(OCc4ccccn4)c(Cl)c3)c(C#N)cnc2cc1OCCN1CCOCC1 [compound 11] | 6.30 to 6.52 | 6.30 to 6.52 | 6.30 to 6.52 | 7.00 to 7.30 | 7.30 to 7.52 | ≥ 7.30 | 7.00 to 7.30 | 6.30 to 6.52 | 7.30 to 7.52 | 6.30 to 6.52 | 7.00 to 7.30 | 6.30 to 6.52 | 7.00 to 7.30 | – | – |
| C=CC(=O)Nc1cc2c(Nc3ccc(OCc4ccccn4)c(Cl)c3)ncnc2cc1OCC1CCCN1 (stereo not shown) [compound 13] | 6.30 to 6.52 | 6.30 to 6.52 | 6.30 to 6.52 | 7.00 to 7.30 | 8.00 to 8.30 | ≥ 7.70 | 7.30 to 7.52 | 6.30 to 6.52 | 8.00 to 8.30 | 6.52 to 6.70 | 7.00 to 7.30 | 6.52 to 6.70 | 7.30 to 7.52 | 6.30 to 6.52 | 6.30 to 6.52 |
| C=CC(=O)Nc1cc2c(Nc3ccc(OCc4ccccn4)c(Cl)c3)ncnc2cc1O[C@@H]1CCN(C)C1 [compound 17] | 6.52 to 6.70 | 7.52 to 7.70 | 6.52 to 6.70 | 7.70 to 8.00 | > 8.30 | ≥ 8.30 | 8.00 to 8.30 | 7.52 to 7.70 | > 8.30 | 7.70 to 8.00 | 7.70 to 8.00 | 7.70 to 8.00 | 8.00 to 8.30 | 7.30 to 7.52 | 7.30 to 7.52 |
| C=CC(=O)Nc1cc2c(Nc3ccc(OCc4ccccn4)c(Cl)c3)ncnc2cc1OCCN(C)C [compound 19] | 6.52 to 6.70 | 6.70 to 7.00 | 6.52 to 6.70 | 7.52 to 7.70 | 8.00 to 8.30 | ≥ 8.00 | 7.52 to 7.70 | 6.70 to 7.00 | 8.00 to 8.30 | 6.70 to 7.00 | 7.52 to 7.70 | 6.70 to 7.00 | 7.52 to 7.70 | 6.70 to 7.00 | 6.70 to 7.00 |
| C=CC(=O)Nc1cc2c(Nc3ccc(OCc4ccccn4)c(Cl)c3)ncnc2cc1OCCCN1CC2CC1CO2 (stereo not shown) [compound 20] | 6.52 to 6.70 | 7.70 to 8.00 | 6.52 to 6.70 | 7.52 to 7.70 | > 8.30 | ≥ 8.00 | 7.70 to 8.00 | 7.70 to 8.00 | > 8.30 | 7.70 to 8.00 | 7.52 to 7.70 | 7.70 to 8.00 | 7.70 to 8.00 | 7.70 to 8.00 | 7.70 to 8.00 |
| C=CC(=O)Nc1cc2c(Nc3ccc(OCc4ccccn4)c(Cl)c3)ncnc2cc1OCCCN1CCCC1 [compound 22] | 7.00 to 7.30 | 7.52 to 7.70 | 7.00 to 7.30 | 7.52 to 7.70 | > 8.30 | ≥ 8.30 | 8.00 to 8.30 | 7.52 to 7.70 | > 8.30 | 7.70 to 8.00 | 7.52 to 7.70 | 7.70 to 8.00 | 8.00 to 8.30 | 7.30 to 7.52 | 7.30 to 7.52 |
| C=CC(=O)Nc1cc2c(Nc3ccc(OCc4ccccn4)c(Cl)c3)ncnc2cc1OC1CN(C)C1 [compound 25] | 6.00 to 6.30 | 7.52 to 7.70 | 6.00 to 6.30 | 6.52 to 6.70 | 7.70 to 8.00 | ≥ 7.70 | 7.70 to 8.00 | 7.52 to 7.70 | 7.70 to 8.00 | 7.30 to 7.52 | 6.52 to 6.70 | 7.30 to 7.52 | 7.70 to 8.00 | 7.00 to 7.30 | 7.00 to 7.30 |
| C=CC(=O)Nc1cc2c(Nc3ccc(OCc4ccccn4)c(Cl)c3)ncnc2cc1OCCN1CCCC1 [compound 28] | 6.52 to 6.70 | 7.00 to 7.30 | 6.52 to 6.70 | 7.70 to 8.00 | 8.00 to 8.30 | ≥ 8.00 | 7.70 to 8.00 | 7.00 to 7.30 | 8.00 to 8.30 | 7.30 to 7.52 | 7.70 to 8.00 | 7.30 to 7.52 | 7.70 to 8.00 | 7.30 to 7.52 | 7.30 to 7.52 |
| C=CC(=O)Nc1cc2c(Nc3ccc(OCc4ccccn4)c(Cl)c3)ncnc2cc1OCCN1C2CCC1COC2 [compound 31] | 6.00 to 6.30 | 7.00 to 7.30 | 6.00 to 6.30 | 7.30 to 7.52 | 8.00 to 8.30 | ≥ 8.00 | 7.30 to 7.52 | 7.00 to 7.30 | 8.00 to 8.30 | 7.00 to 7.30 | 7.30 to 7.52 | 7.00 to 7.30 | 7.30 to 7.52 | 6.70 to 7.00 | 6.70 to 7.00 |
